Where two headings read alike, the source gives them in different places.
Experiments:
[1] = test system: S. mansoni schistosomula; assay: Schistosomula screens (Roboworm, phenotype and motility); format: cell-based, Schistosoma mansoni; settings: 72 h
Experimental: Anthelmintic activity on the schistosomula stage of S. mansoni was evaluated using Roboworm, an integrated high-throughput, high content image analysis platform originally developed by Paveley et al. and subsequently used by our research group as previously described, [28], [50], [51]. Alternatively, the computer application Worminator can be used to assess motion of microscopic parasites such as the schistosomula stage of S. mansoni. Compounds (as single concentration or two-fold titrations) were prepared for screening in a 384-well plate (PerkinElmer, MA, USA), where solutions (1.6 mM, 0.5 μl) were wet stamped using the Biomek NX ^P liquid handling platform into Basch medium (20 μl). Negative (0.625% DMSO) and positive (Auranofin - AUR - at 10 µM final concentration in 0.625% DMSO) control wells were similarly prepared. Mechanically transformed schistosomula (about 120 parasites in 60 μl of Basch medium) were distributed into each treated well using a WellMate (Thermo Scientific, Loughborough, UK). Schistosomula/compound co-cultures were then incubated at 37°C for 72 h in a humidified atmosphere containing 5% CO 2. At 72 h, parasite/compound co-cultures were resuspended and tissue culture plates were imaged under the same conditions (37°C for 72 h in a humidified atmosphere containing 5% CO 2) using an ImageXpressXL high content imager (Molecular Devices, UK) with subsequent images processed for phenotype and motility as previously reported. Plate analysis returned a phenotype and motility score for each well and any scores below -0.15 and -0.35 (defined threshold anti-schistosomula values for phenotype and motility scores, respectively) defined a condition displaying anti-schistosomula activity. Compound screens were assessed based on the Z´ values (derived from the means and standard deviations of positive and negative controls) and those equal to or above 0.3 for both phenotype and motility were considered successful.
Phenotype and motility scores of each titration were used to generate dose response curves in GraphPad Prism 7.02 based on the corrected average score of the three replicates for each data point.

[2] = test system: S. mansoni adult worms; assay: Adult worm screens (WormassayGP2 motility, egg count); format: cell-based, Schistosoma mansoni; settings: 72 h
Experimental: For compound screening, adult worms (three worm pairs/well for compound 7 and the hit compounds of set two; one worm pair/well for the hit compounds of set three) were transferred into wells of a 48-well tissue culture plate containing 1 ml of adult worm media. Adult worms were treated with compounds previously identified as hits at 10 µM on 72 h cultured schistosomula. Worms were dosed with an appropriate volume of 10 mM stock solution of each compound (in DMSO) to have a concentration range of 50 – 6.25 µM (up to 0.5% DMSO, primary screen of compound 7). Secondary screens were performed on the structural analogues of compound 7 (only the schistosomula hits at 10 µM) at a single concentration (12.5 µM) and compared to the same concentration of the parental compound (included in the screen as reference). DMSO (0.5%) and praziquantel (10 µM in 0.5% DMSO) were also included as negative and positive control treatments (both primary and secondary screens). Treated adult worms were incubated for 72 h in a humidified environment at 5% CO 2 at 37°C. Parasite motility after drug treatment was assessed by a digital image processing-based system (WormassayGP2, see Software availability) modified after Wormassay, [56], [57]. Egg production was assessed according to the methodology described by Edwards et al..

[3] = test system: S. mansoni miracidia; assay: Miracidia to sporocyst transformation screens; format: cell-based, Schistosoma mansoni; settings: 48 h
Experimental: Following hatching of S. mansoni eggs, miracidia were incubated on ice for 15 min and then centrifuged at 700 x g for 5 min at 4°C. The miracidia pellet was then re-suspended in 5 ml of Chernin's balanced salt solution (CBSS), subjected to pelleting and two subsequent washes (all at 700 x g for 5 min at 4°C). Afterwards, the supernatant was carefully removed with a serological pipette and the miracidia-enriched pellet was resuspended with CBSS supplemented with 1 mg/ml each of glucose and trehalose and 500 µl of Penicillin-Streptomycin (containing 10,000 units penicillin and 10 mg streptomycin/ml, P4333, Sigma-Aldrich). In preparation for the screens, CBSS (250 µl) was aliquoted to each well of a 24-well plate followed by addition of each compound in DMSO (1 mM concentration in 1% DMSO) or DMSO alone (1%, negative control). Next, approximately 20-25 miracidia (in 250 µl of CBSS) were aliquoted to each well. […] Both preliminary and secondary screens were performed in duplicate on two separate occasions (two independent biological replicates). Miracidia were incubated for 48 h at 26°C before being evaluated using an Olympus inverted light microscope for morphological and behavioural changes differing from the control wells. Dead, partially transformed and fully transformed miracidia were enumerated in the DMSO control and the assay plates as previously described, [23], [59]. […] Absence of ciliated plates attached to the surface of the parasite and formation of sporocyst tegument defined the so-called “fully transformed” parasites.

[4] = MTT cytotoxicity assay on HepG2 cells; format: cell-based, Human; settings: human, HepG2 cells, MTT, 24 h; three dose response titrations (200 - 1 µM)
Experimental: Compound cytotoxicity on Human Hepatocyte Carcinoma (HepG2) cells (85011430, Sigma Aldrich) was elucidated by the MTT (3-(4,5-dimethylthiazol-2-yl)-2,5-diphenyltetrazolium bromide) tetrazolium reduction assay as previously described, [28], [50]. Briefly, HepG2 cells were seeded at a density of 20,000 per well in 96-well black, clear bottom falcon plate in modified BME medium (50 μl; containing 1% antibiotic/mycotic (Sigma-Aldrich, Gillingham, UK), 1% 200 mM L-glutammine (Gibco, Paisley, UK), 1% MEM non-essential amino acid solution (Gibco, Paisley, UK), and 10% fetal bovine serum (Gibco, Paisley, UK)). HepG2 plates seeded for cytotoxicity screens were treated with compounds 24 h post-seeding. Each compound was tested at 200, 100, 75, 50, 20, 10 and 1 µM; each concentration was assayed in triplicate. Blank wells (no cells), as well as positive (1% v/v Triton X-100, X100, Sigma-Aldrich) and negative (1.25% v/v DMSO or media only) controls, were included in each plate. After addition of compounds, each plate was then incubated for a further 20 h before application of MTT reagent for assessment of compound cytotoxicity (4 h incubation with MTT for a total 24 h cell-drug incubation). The absorbance reading at 570 nm was measured with a POLARstar Omega (BMG Labtech, UK) microtiter plate reader. Dose response curves were generated in GraphPad Prism 7.02 based on the corrected average absorbance of the three replicates for each concentration point.

[5] = test system: S. mansoni adult worms; assay: Adult worm screens (WormassayGP2 motility, egg count); format: cell-based; settings: Schistosoma mansoni, two dose response titrations (100 – 3.13 µM)

## c1ccc(Nc2nc(N3CCCC3)nc(N3CCNCC3)n2)cc1 [Compound 7]
[1]; 10 µM
  anti-schistosomula activity (hit on phenotype and motility): remaining active
[1]; 50 µM
  anti-schistosomula activity (hit on phenotype and motility): showed anti-schistosomal activity
[1]; Schistosoma mansoni, average of phenotype and motility metrics, read-out: Schistosomula EC50 Average
  EC50: 5.54 µM
[1]; Schistosoma mansoni, dose response titrations (10 - 0.625 µM), read-out: Schistosomula EC50 Motility
  EC50: 5.03 µM
[1]; Schistosoma mansoni, dose response titrations (10 - 0.625 µM), read-out: Schistosomula EC50 Phenotype
  EC50: 5.65 µM
[1]; average of phenotype and motility metrics, read-out: Schistosomula EC50 Average
  EC50: 5.34 µM
[1]; both 50 and 10 µM
  schistosomula phenotype induced: swollen with some individuals additionally displaying posterior end compression
[2]; 12.50 and 6.25 µM
  effect on adult worms (motility): worm recovery began at 12.50 µM and remained at 6.25 µM
[2]; 50 and 25 µM
  effect on adult worms (motility): lethal effect
[2]; titration 50 - 6.25 µM, effect up to and including 12.50 µM
  egg production (worm fecundity): particularly effective in inhibiting worm fecundity
[3]; 5, 2 and 0.5 µM
  inhibition of miracidia transformation: 20–25%
[3]; 50 and 25 µM
  effect on miracidia: completely lethal
[3]; Schistosoma mansoni, 10 µM
  inhibition at 10 µM: 45%
[4]
  CC50 at 24 h: 13.7 µM
[5]
  EC50: 11 µM
